According to patent publication US20200131196A1 (Mount Tam Therapeutics, Inc., priority 2017, published 2020):

Key:
ST486 = assay: OncoPanel cell proliferation assay, ST486; type: cell-based, human; conditions: for GI50: read-out: Cell Count GI50; for IC50: read-out: Cell Count IC50
Experimental: (§1) Cells were grown in RPMI 1640, 10% FBS, 2 mM L-alanyl-L-glutamine, 1 mM Na pyruvate, or a special medium. Cells were seeded into 384-well plates and incubated in a humidified atmosphere of 5% CO2 at 37° C. Compounds were added the day following cell seeding. At the same time, a time zero untreated cell plate was generated. After a 3-day incubation period, cells were fixed and stained to allow fluorescence imaging of nuclei. Compounds (1 mM stock solutions) were serially diluted in half-log steps from the highest test concentration ([…]), and assayed over 10 concentrations with a maximum assay concentration of 0.1% DMSO. Automated fluorescence microscopy was carried out using a Molecular Devices ImageXpress Micro XL high-content imager, and images were collected with a 4× objective. 16-bit TIFF images were acquired and analyzed with MetaXpress 5.1.0.41 software.
(§2) Cell proliferation was measured by the fluorescence intensity of an incorporated nuclear dye. The output is referred to as the relative cell count, where the measured nuclear intensity is transformed to percent of control (POC) using the following formula: […]
(§3) Cellular response parameters were calculated using nonlinear regression to a sigmoidal single-site dose response model:
(§4) EC50 is the test compound concentration at the curve inflection point or half the effective response (parameter C of the fitted curve solution). GI50 is the concentration needed to reduce the observed growth by half (midway between the curve maximum and the time zero value). “Cell Count Activity Area” is an estimate of the integrated area above the curve (Barretina, et al. The Cancer Cell Line Encyclopedia enables predictive modelling of anticancer drug sensitivity. Nature 483: 603-607). […] In rare instances, values <0 or >10 may be observed. […] Curve-fitting, calculations, and report generation was performed using a custom data reduction engine and MathIQ based software (AIM).

U-138MG = assay: OncoPanel cell proliferation assay, U-138MG; type: cell-based, human; conditions: U-138MG; for EC50: read-out: Cell Count EC50; for GI50: read-out: Cell Count GI50
Experimental: as §1, §2, §3, §4

NCIH446 = assay: OncoPanel cell proliferation assay, NCIH446; type: cell-based, human; conditions: for EC50: NCI-H446, read-out: Cell Count EC50; for GI50: NCI-H446, read-out: Cell Count GI50
Experimental: as §1, §2, §3, §4

SK-NEP-1 = assay: OncoPanel cell proliferation assay, SK-NEP-1; conditions: for EC50: SK-NEP-1, read-out: Cell Count EC50; for GI50: SK-NEP-1, read-out: Cell Count GI50; for Cell Count Activity Area: SK-NEP-1
Experimental: (§6) Cells were seeded into 384-well plates and incubated in a humidified atmosphere of 5% CO2 at 37° C. Compounds were added the day following cell seeding. At the same time, a time zero untreated cell plate was generated. After a 3-day incubation period, cells were fixed and stained to allow fluorescence imaging of nuclei. Compounds (1 mM stock solutions) were serially diluted in half-log steps from the highest test concentration (1 micromol), and assayed over 10 concentrations with a maximum assay concentration of 0.1% DMSO. Automated fluorescence microscopy was carried out using a Molecular Devices ImageXpress Micro XL high-content imager, and images were collected with a 4× objective. 16-bit TIFF images were acquired and analyzed with MetaXpress 5.1.0.41 software.

Hs 729 = assay: OncoPanel cell proliferation assay, Hs 729; type: cell-based, human; conditions: for GI50: read-out: Cell Count GI50; for IC50: read-out: Cell Count IC50
Experimental: as §1, §2, §3, §4

RKOE6 = assay: OncoPanel cell proliferation assay, RKOE6; conditions: for EC50 / GI50 / IC50: Homo sapiens; for EC50: RKOE6, read-out: Cell Count EC50; for GI50: RKOE6, read-out: Cell Count GI50; for IC50: RKOE6, read-out: Cell Count IC50; for Cell Count Activity Area: RKOE6
Experimental: as §6

CAMA-1 = assay: OncoPanel cell proliferation assay, CAMA-1; conditions: for Cell Count Activity Area: CAMA-1; for EC50: CAMA-1, read-out: Cell Count EC50; for IC50: CAMA-1, read-out: Cell Count IC50
Experimental: as §6

SCaBER = assay: OncoPanel cell proliferation assay, SCaBER; type: cell-based, human; conditions: for GI50: read-out: Cell Count GI50
Experimental: as §1, §2, §3, §4

AGS = assay: OncoPanel cell proliferation assay, AGS; type: cell-based, human; conditions: for GI50: read-out: Cell Count GI50; for IC50: read-out: Cell Count IC50
Experimental: as §1, §2, §3, §4

SW684 = assay: OncoPanel cell proliferation assay, SW684; type: cell-based, human; conditions: for GI50: read-out: Cell Count GI50
Experimental: as §1, with “Cells” for “Cells were grown in RPMI 1640, 10% FBS, 2 mM L-alanyl-L-glutamine, 1 mM Na pyruvate, or a special medium. Cells”
as §2, §3
(§5) GI50 is the concentration needed to reduce the observed growth by half (midway between the curve maximum and the time zero value). […] In rare instances, values <0 or >10 may be observed. […] Curve-fitting, calculations, and report generation was performed using a custom data reduction engine and MathIQ based software (AIM).

SNU-5 = assay: OncoPanel cell proliferation assay, SNU-5; type: cell-based, human; conditions: for EC50: read-out: Cell Count EC50; for GI50: read-out: Cell Count GI50
Experimental: as §1, with “Cells” for “Cells were grown in RPMI 1640, 10% FBS, 2 mM L-alanyl-L-glutamine, 1 mM Na pyruvate, or a special medium. Cells”
as §2, §3, §5

[1] = Homo sapiens, read-out: Cell Count EC50
[2] = Homo sapiens, read-out: Cell Count IC50

SMILES: CN[C@@H]1C[C@H]2O[C@@](C)([C@@H]1OC)n1c3ccccc3c3c4c(c5c6ccccc6n2c5c31)C(=O)NC4 [Staurosporine, reference compound]
- Cell Count Activity Area (ST486): 4.89
- GI50 (ST486; Homo sapiens): 2.83 nM
- IC50 (ST486; Homo sapiens): 4.61 nM
- EC50 (U-138MG; Homo sapiens, U138-MG): 0.857 nM
- GI50 (U-138MG; Homo sapiens, U138-MG): 1.05 nM
- Cell Count Activity Area (U-138MG): 3.72
- Cell Count Activity Area (NCIH446): 2.81
- EC50 (NCIH446; Homo sapiens): 32.6 nM
- GI50 (NCIH446; Homo sapiens): 16.8 nM
- EC50 (SK-NEP-1; Homo sapiens): 48.2 nM
- GI50 (SK-NEP-1; Homo sapiens): 36.5 nM
- Cell Count Activity Area (SK-NEP-1): 2.78
- Cell Count Activity Area (Hs 729): 4.06
- GI50 (Hs 729; Homo sapiens): 0.898 nM
- IC50 (Hs 729; Homo sapiens): 7.04 nM
- EC50 (RKOE6): 16.8 nM
- GI50 (RKOE6): 13.2 nM
- IC50 (RKOE6): 17.9 nM
- Cell Count Activity Area (RKOE6): 3.96
- Cell Count Activity Area (CAMA-1): 2.99
- EC50 (CAMA-1; Homo sapiens): 20.2 nM
- GI50 (CAMA-1; Homo sapiens, CAMA-1, read-out: Cell Count GI50): 12 nM
- IC50 (CAMA-1; Homo sapiens): 99 nM
- Cell Count Activity Area (SCaBER): 6.03
- GI50 (SCaBER; Homo sapiens): 0.474 nM
- Cell Count Activity Area (AGS): 6.19
- GI50 (AGS; Homo sapiens): 0.926 nM
- IC50 (AGS; Homo sapiens): 1.21 nM
- GI50 (SW684; Homo sapiens): 0.95 nM
- Cell Count Activity Area (SNU-5): 2.58
- EC50 (SNU-5; Homo sapiens): 6.44 nM
- GI50 (SNU-5; Homo sapiens): 10.3 nM

SMILES: CO[C@H]1C[C@@H]2CC[C@@H](C)[C@@](O)(O2)C(=O)C(=O)N2CCCC[C@H]2C(=O)O[C@H]([C@H](C)C[C@@H]2CC[C@@H](O)[C@H](OC)C2)CC(=O)[C@H](C)/C=C(\C)[C@@H](O)[C@@H](OC)C(=O)[C@H](C)C[C@H](C)/C=C/C=C/C=C/1C [Rapamycin, reference compound]
- Cell Count Activity Area (ST486): 3.99
- EC50 (ST486; [1]): 0.0354 nM
- GI50 (ST486; Homo sapiens): 0.0524 nM
- IC50 (ST486; Homo sapiens): > 1000 nM
- EC50 (U-138MG; Homo sapiens, U138-MG): 0.0363 nM
- GI50 (U-138MG; Homo sapiens, U138-MG): 0.436 nM
- IC50 (U-138MG; Homo sapiens, U138-MG, read-out: Cell Count IC50): > 1000 nM
- Cell Count Activity Area (U-138MG): 3.14
- Cell Count Activity Area (NCIH446): 1.69
- EC50 (NCIH446; Homo sapiens): > 1000 nM
- GI50 (NCIH446; Homo sapiens): 44.4 nM
- IC50 (NCIH446; Homo sapiens, NCI-H446, read-out: Cell Count IC50): > 1000 nM
- EC50 (SK-NEP-1; Homo sapiens): 0.293 nM
- GI50 (SK-NEP-1; Homo sapiens): 0.361 nM
- IC50 (SK-NEP-1; Homo sapiens, SK-NEP-1, read-out: Cell Count IC50): 1.47 nM
- Cell Count Activity Area (SK-NEP-1): 4.22
- Cell Count Activity Area (Hs 729): 0.55
- EC50 (Hs 729; [1]): > 1000 nM
- GI50 (Hs 729; Homo sapiens): > 1000 nM
- IC50 (Hs 729; Homo sapiens): > 1000 nM
- EC50 (RKOE6): 0.0835 nM
- GI50 (RKOE6): 0.356 nM
- IC50 (RKOE6): 1.06 nM
- Cell Count Activity Area (RKOE6): 4.61
- Cell Count Activity Area (CAMA-1): 4.07
- EC50 (CAMA-1; Homo sapiens): 0.194 nM
- IC50 (CAMA-1; Homo sapiens): 1.19 nM
- Cell Count Activity Area (SCaBER): 5.25
- EC50 (SCaBER; [1]): 0.0377 nM
- GI50 (SCaBER; Homo sapiens): 0.158 nM
- IC50 (SCaBER; [2]): 0.321 nM
- Cell Count Activity Area (AGS): 5.67
- EC50 (AGS; [1]): 0.0387 nM
- GI50 (AGS; Homo sapiens): 0.165 nM
- IC50 (AGS; Homo sapiens): 0.314 nM
- Cell Count Activity Area (SW684): 2.81
- GI50 (SW684; Homo sapiens): 1.97 nM
- IC50 (SW684; [2]): > 1000 nM
- EC50 (SNU-5; Homo sapiens): 0.885 nM
- GI50 (SNU-5; Homo sapiens): 24 nM
- IC50 (SNU-5; [2]): > 1000 nM
